# Assay results from patent publication US20220280644A1, “"TRPswitch" - A STEP FUNCTION CHEMO-OPTOGENETIC LIGAND” (UNIVERSITY OF UTAH RESEARCH FOUNDATION, priority 2019, published 2022).
# Tests used:
# [1] = tested on: zebrafish Trpa1b (zTrpa1b); assay: Rescue experiment, Trpa1b−/− embryos re-expressing zTrpa1b in Rohon-beard neurons; assay type: in vivo; details: 20 μM, motion within 5 s after 1 s WL3
# Experimental: (§1) For Trpa1b ohnolog and paralog rescue experiments, Trpa1b^−/− embryos were injected with ngn1:zTrpa1b-2A-mCherry (partial plasmid sequence in SEQ ID NO:5), ngn1:zTrpa1a-2A-mCherry, ngn1:hTRPA1-2A-EGFP or ngn1:mTRPA1-2A-mCherry at the 1-cell stage for mosaic Rohon-beard neuron expression. Embryos were screened at 2 dpf for fluorescent expression in Rohon-beard neurons, incubated with 20 μM TRPswitch-B for 1 hr and decapitated posterior to the eyes right before experiments. NA 0.25 5× objective and 1 s WL3 light illumination was used.
# (§2) To test the potential cross activity of TRPswitch-B on the zebrafish ohnolog Trpa1a and on mammalian orthologs, zebrafish Trpa1a, mouse TRPA1 or human TRPA1 were transiently re-expressed in the Rohon-beard neurons of mutant Trpa1b^−/− zebrafish and performed light-induced motion response experiments in the presence of TRPswitch-B. Rescue experiments were performed in Trpa1b^−/− zebrafish with transient mosaic re-expression of zebrafish Trpa1b (zTrpa1b), zebrafish Trpa1a (zTrpa1a), mouse TRPA1 (mTRPA1) or human TRPA1 (hTRAP1) in Rohon-beard neurons. Embryos were pre-treated with 20 μM TRPswitch-B and decapitated right before light stimulation to eliminate the light response mediated by the retina (Table 5). […]
# [2] = tested on: WT embryos; assay: Rescue experiment, WT embryos; assay type: in vivo, zebrafish; details: 20 μM, motion within 5 s after 1 s WL3
# Experimental: as §1, §2
# [3] = tested on: zebrafish Trpa1b; assay: Whole-cell patch-clamp of HEK293T cells expressing zebrafish Trpa1b; assay type: cell-based
# Experimental: Immortalized HEK293T cells or human colonic fibroblast cells (CCD-18Co; ATCC) were used. HEK293T cells were plated on […] cover slips and transiently transfected with 10 μg of Trpa1b plasmid (pCMV-zTrpa1b-FLAG) (SEQ ID NO:3) and 5 μg of mNeonGreen cDNA (Allele Biotechnology), then grown in a 6 cm plate for 24-48 h. CCD-18Co were cultured in Eagle's minimal essential medium with 10% FBS, 1× penicillin and streptomycin. CCD-18Co cells were plated on 12 mm cover slips and transiently transfected with 5 μg of zTrpa1b plasmid (pCMV-zTrpa1b-FLAG) together with 5 μg of mNeonGreen cDNA (Allele Biotechnology), then grown in a […] plate for 48-72 h. After this time, the cover slips were transferred to a recording chamber containing an extracellular solution composed of 145 mM sodium gluconate, 4 mM KCl, 3 mM MgCl2, 10 mM D-glucose, 10 mM HEPES; pH 7.4 adjusted with NaOH. The internal solution contained 122 mM cesium methane sulfonate, 1.8 mM MgCl2, 9 mM EGTA, 14 mM creatine phosphate (sodium salt), 4 mM Mg-ATP, 0.3 mM Na-GTP, 10 mM HEPES, pH 7.2 adjusted with CsOH. Borosilicate glass pipettes with a resistance of 3-5 MO were used. Whole cell currents were measured on an Axopatch 200B amplifier (Molecular De-vices) under the control of pClamp software. Signals were digitized through a Digidata1550B interface (Molecular Devices). Currents were filtered at 5 kHz (lowpass, Bessel) and sampled at 10 kHz prior to analysis with Clampfit software (Molecular Devices). All the plots and statistical tests were performed on Excel (Microsoft corp.). Basal Trpa1b whole cell currents were measured with a ramp protocol (˜100 to +100 mV, at a holding potential of 0 mV). Photoactive compounds were perfused into the recording chamber and a fluorescent light generated by mercury vapor short arc (U-HGLGPS, OLYMPUS) filtered through an ET-ECFP 434/17 nm filter and through a ET-mCherry 560 nm filter (Chroma Technology) was switched “on” and “off” for 10 s. All experiments were performed at room temperature. The p values were calculated using a two-tailed, paired Student's t-test.
structure (smiles),measurement,setting,value
"Cc1nn(C)c(C)c1/N=N/c1ccc(NC(=O)c2cccs2)cc1NC(=O)c1cccs1 [Compound 9, (E)-N,N′-(4-((1,3,5-trimethyl-1H-pyrazol-4-yl)diazenyl)-1,3-phenylene)bis(thiophene-2-carboxamide)]",% response,[1],38.5%
same,% response,[2],65%
same,current density fold increment after subsequent pulse of green light,[3]; +100 mV,1.26±0.33 fold
same,current density fold increment upon violet light illumination,[3]; +100 mV,2.12±0.47 fold
same,current density fold increment after subsequent pulse of green light,[3]; −100 mV,1.41±0.38 fold
same,current density fold increment upon violet light illumination,[3]; −100 mV,2.27±0.38 fold
